Assay results taken from US9475766B2, “Substituted aromatic sulfur compounds and methods of their use” (Cephalon, Inc., priority 2011, dated 2016).
Where a name gives a salt, the structure may show the parent alone.

Key:
[1] = system: BxPC3 pancreatic cell line; assay: Cell survival and adhesion assay (luciferase), BxPC3; assay type: cell-based; conditions: BXPC-3, 5 hours, BxPC3 cells overlayed onto human mesothelial cell monolayers, read-out: relative reduction in Luciferase activity, BxPC3 10 μM
How it was run: (§1)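 Luciferase-expressing tumour cells (10^5) were overlaid on confluent human mesothelial cell monolayers together with compound or DMSO for 5 hours. Non-adherent cells were washed off; adherent, surviving cells were lysed, protein-normalised and quantified by firefly luciferase luminescence.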

[2] = system: A2780 ovarian cancer cell line; assay: Cell survival and adhesion assay (luciferase), A2780; assay type: cell-based; conditions: 5 hours, A2780 cells overlayed onto human mesothelial cell monolayers, read-out: relative reduction in Luciferase activity, A2780 10 μM
How it was run: as §1

[3] = system: SU86 pancreatic cancer cell line (Su.86.86); assay: Cell survival and adhesion assay (luciferase), SU86; assay type: cell-based; conditions: 5 hours, SU86 cells overlayed onto human mesothelial cell monolayers, read-out: relative reduction in Luciferase activity, SU86 10 μM
How it was run: as §1

[4] = system: HT29 colon cancer cell line; assay: Cell survival and adhesion assay (luciferase), HT29; assay type: cell-based; conditions: HT-29, 5 hours, HT29 cells overlayed onto human mesothelial cell monolayers, read-out: relative reduction in Luciferase activity, HT29 10 μM
Protocol: SU86 is a pancreatic cancer cell line. HT29 is a colon cancer cell line. BxPC3 is a pancreatic cell line. A2780 is an ovarian cancer cell line.
BxPc-3 and Su.86.86 pancreatic and HT-29 colon and A2780 ovarian cancer cell lines were purchased from ATCC and cultured in DMEM supplemented with 10% fetal bovine serum, glutamine, penicillin, and streptomycin. All cells were cultured at 37° C. in a humidified incubator in a 5% CO2 atmosphere. The cancer cell lines were transduced with a retrovirus containing pLuc-puro, a constitutive luciferase reporter and selected in […] media. Transient transfection of a full-length human c-FLIP construct in the vector pcDNA3 was performed as previously described. Scaife et al. Cancer Research 2002, 62: 6870-78.
Pancreatic cancer cell cultures (BxPc-3 and Su.86.86) and colon cancer (HT-29) and ovarian cancer (A2780) cells that were stably transfected with a firefly luciferase construct were transiently suspended with trypsin-PBS. 10^5 cells were overlayed onto confluent monolayers of human mesothelial cells in 96-well plates while simultaneously adding various concentrations of compounds of the invention or DMSO for 5 hours. The non-adherent cells were carefully washed away from the wells twice with 100 μl/well of blocking buffer (1% BSA in PBS) and twice again with ice-cold PBS. Adherent and surviving cells were detected by luciferase activity in a luminometer as follows. The cells were lysed in 0.1% TritonX-100, 25 mM Gly-Gly (7.8), MgSO4, 4 mM EGTA, 1 mM DTT. The total protein concentration was normalized with lysis buffer. 50 μl of cell lysate was added per well of a 96-well microtiter plate. 50 μl of luciferin substrate (Promega) was added per well and then the light output determined in a luminometer.

SMILES | melting point [°C] | inhibition at 10 µM [1] [%] | inhibition at 10 µM [2] [%] | inhibition at 10 µM [3] [%] | inhibition at 10 µM [4] [%]
CC(C)(C(=O)NCc1ccc(-n2cccn2)cc1)c1ccc(S(=O)(=O)/C=C/C#N)cc1 (as salt: trifluoroacetic acid salt) [Example 21, 2-[4-((E)-2-Cyano-ethenesulfonyl)-phenyl]-N-(4-pyrazol-1-yl-benzyl)-isobutyramide] | 47 to 53 | – | – | – | –
CC(C)(C(=O)NC1CCCCC1)c1ccc(S(=O)(=O)/C=C/C#N)cc1 [Example 12, 2-[4-((E)-2-Cyano-ethenesulfonyl)-phenyl]-N-cyclohexyl-isobutyramide] | 191 to 193 | 50 to 85 | 50 to 85 | 50 to 85 | < 10
CC(C)(C(=O)N1CCc2ccccc2C1)c1ccc(S(=O)(=O)/C=C/C#N)cc1 [Example 20, (E)-3-{4-[2-(3,4-Dihydro-1H-isoquinolin-2-yl)-1,1-dimethyl-2-oxo-ethyl]-benzenesulfonyl}-acrylonitrile] | 54 to 60 | > 85 | > 85 | 50 to 85 | –
COc1ccc(NC(=O)C(C)(C)c2ccc(S(=O)(=O)/C=C/C#N)cc2)cc1 [Example 23, 2-[4-((E)-2-Cyano-ethenesulfonyl)-phenyl]-N-(4-methoxy-phenyl)-isobutyramide] | 123 to 126 | 50 to 85 | > 85 | 50 to 85 | –
CC(C)(C)c1ccc(S(=O)(=O)/C=C/C(N)=O)cc1 [Example 55, (E)-3-(4-tert-Butyl-benzenesulfonyl)-acrylamide] | 151 | 50 to 85 | 10 to 50 | 10 to 50 | 10 to 50
C/C=C/S(=O)(=O)c1ccc(C(C)(C)C)cc1 [Example 56, 1-tert-Butyl-4-[((E)-prop-1-ene)-1-sulfonyl]-benzene] | 80 | < 10 | < 10 | < 10 | < 10
CC(C)(C)c1ccc(S(=O)(=O)/C=C/c2ccccc2)cc1 [Example 57, 1-tert-Butyl-4-((E)-2-phenyl-ethenesulfonyl)-benzene] | 95 | < 10 | < 10 | < 10 | < 10
C=C(c1ccccc1)S(=O)(=O)c1ccc(C(C)(C)C)cc1 [Example 58, 1-tert-Butyl-4-(1-phenyl-ethenesulfonyl)-benzene] | 99 | 50 to 85 | < 10 | 10 to 50 | 10 to 50
CCOC(=O)/C=C/S(=O)(=O)c1ccc(C(C)(C)C)cc1 [Example 59, (E)-3-(4-tert-Butyl-benzenesulfonyl)-acrylic acid ethyl ester] | 88 to 91 | 50 to 85 | 50 to 85 | 10 to 50 | 10 to 50
CC(C)(C(=O)NC1CCCCC1)c1ccc(S(=O)(=O)/C=C/C#N)cn1 [Example 86, 2-[5-((E)-2-Cyano-ethenesulfonyl)-pyridin-2-yl]-N-cyclohexyl-isobutyramide] | – | 50 to 85 | 10 to 50 | 10 to 50 | > 85
